“Also recorded” adds a separate entry of the source.
How the values were obtained:
[1] = Chiral and chemical stability in solution and on storage; type: physicochemical; details: for racemization in dosing solutions and bioanalytical solutions: saline vehicle, DMSO:methanol, 1:1
From the text: Without ascribing to any particular theory, the present inventors believe that the facile separation of enantiomers using the N-protected racemate of AV1013 is probably due to the greater stability of the racemate as well as the separate enantiomers in protected form. […] Unstability also stems from the ability of the free base to self condense. Because self-condensation is promoted in concentrated solutions, it is desirable to avoid highly concentrated solutions of the free base form of optically active AV1013. Likewise, the free base form of racemic AV1013 or its hydrochloride salt are also unstable, precluding their use as precursors to obtaining (S)-AV1013 as a free base or its hydrochloride salt in high yield and/or high purity.
Thus, it is often desirable to re-purify the de-protected product using purification techniques known in the art. For example, any one or more of the methods described above for separating chiral molecules, such as, chromatography (e.g., HPLC, GC, and SFC), crystallization, fractional crystallization, and the like may be used for re-purification. An exemplary method is recrystallization. Purification by recrystallization allows separation of the desired (S)-enantiomer in high purity, such that the overall reaction sequence including isolation of the desired (S)-enantiomer requires only a single chromatographic step (i.e., the chiral separation). Recrystallization can be carried out in any of a number of single or mixed solvent systems including alcohols, ethers, esters, nitriles, halogenated hydrocarbons, amides and aqueous mixtures thereof. Suitable solvents include methanol, ethanol, propanol, iso-propanol, acetone, tetrahyrofuran, methyl ethyl ketone, methyl isobutyl ketone, ethyl acetate, amyl acetate, acetonitrile, diethyl ether, methyl tert-butyl ether, dichloromethane, dichloroethane, chloroform, dimethylformamide, and combinations thereof. Illustrative mixed solvent systems used to recrystallize (S)-AV1013 are iso-propanol/methyl tert-butyl ether and ethanol/methyl tert-butyl ether.
The five-step route provided a 15% overall yield of (S)-AV1013.HCl. The chiral separation, by SFC chromatography, is the only chromatographic step required. Hydrolysis of the N-protected (S)-AV1013, followed by recrystallization from iso-propanol/methyl tert-butyl ether provided (S)-AV1013.HCl in greater than 99% chemical purity and greater than 97% S-enantiomer (greater than 94% enantiomeric excess (ee)) by chiral HPLC, as determined from the equation ee=[|R−S^51÷(R+S)]×100 ee=[|R−S|÷(R+S)]×100. […] Even under optimal storage and handling conditions to minimize exposure to moisture, a small degree of racemization (i.e., approximately 2%) was observed. Recrystallization was effective to improve enantiomeric purity to arrive at a product having an illustrative chiral purity as described above. […] The recrystallized (S)-AV 1013.HCl contained approximately 25 mole percent alcohol (less than about 10% by weight) even when dried at 50° C. Thus, it appears that the resultant product is formed as a solvate under the recrystallization and drying conditions employed.

[2] = tested on: rat morphine withdrawal model; assay: Rat morphine withdrawal model (naloxone-precipitated); type: in vivo; details: rats, 25 mg/kg PO QD for 7 days
Description: The ability of (S)-AV1013 to reduce/ameliorate withdrawal behavior relative to a control was evaluated in rats. The study was conducted in accordance with the method disclosed by Hutchinson et. al., Brain Behavior and Immunity, V. 23, (2009), p 240-250.
Rats were administered morphine in escalating doses over a five day period to induce dependence (15-22.5 mg/kg/day). (S)-AV1013 (25 mg/kg PO QD) or vehicle (saline) administration was initiated two days prior and continued concomitant with the morphine dosing regimen for a total of 7-days. On day seven all animals were administered naloxone SC to precipitate withdrawal symptoms. Specific withdrawal behaviors were scored over 6×, 10 minute intervals. A total of 15 rats per group were evaluated.

With `CC(C)c1nn2ccccc2c1C(=O)[C@H](C)N` [(S)-AV1013, (S)-2-amino-1-(2-isopropylpyrazolo[1,5-a]pyridin-3-yl)propan-1-one] the “stability / racemization in solution” value ([1]; free base (or hydrochloride salt where stated), in solution) was “unstable and racemizes in solution; also recorded: racemizes slowly in solution”, the “racemization in dosing solutions and bioanalytical solutions” value [1] was “no detectable interconversion between the enantiomers” and the “racemization in dosing solutions and bioanalytical solutions” value ([1]; listed as (S)-enantiomer) was “no racemization has been documented”. For the same compound, the “withdrawal behaviors relative to vehicle” value [2] was “reduced withdrawal behaviors; also recorded: reduced withdrawal symptoms relative to those receiving vehicle”.

Source: patent US8119657B2, “Enantiomeric compositions of 2-amino-1-(2-isopropylpyrazolo[1,5-α]pyridin-3-yl)propan-1-one and related methods” (MediciNova, Inc., priority 2009, dated 2012)
